The values below come from ChEMBL document CHEMBL5303304, “EUbOPEN Chemogenomics Library - IncuCyte” (2023).

What all share (format): toxicity, cell-based
One series deals with HEK-293T. The series can be described thus: Incucyte cell viability with HEK293T. The following applies: human, 10 µM, compound concentration 10 uM.
The test system of the next series is Fibroblast. The series can be described thus: Incucyte cell viability with human fibroblast. The note with it: 10 µM, compound concentration 10 uM.
The next series relates to U2OS. Description: Incucyte cell viability with U2OS. The following applies: human, 10 µM, compound concentration 10 uM.
Further: unitless GR value; below 1 slowed growth and below 0 cell loss.

For the molecule `NC(=O)c1sc2nc(N3CCC(NC[C@H](O)c4ccccn4)CC3)cc(C(F)(F)F)c2c1N`, the “Growth Rate” value in the series on HEK-293T (0 h, replicate number 1) is -0.64; in the series with Fibroblast (0 h, replicate number 1), 0.86; in the series with Fibroblast (0 h, replicate number 2), 0.11; in the series on Fibroblast (12 h, replicate number 1), 0.88; in the series with U2OS (0 h, replicate number 1), 0.49; in the series with U2OS (0 h, replicate number 2), 0.65. The “Growth Rate” value is -0.12 with U2OS (6 h, replicate number 2); 0.93 in the series on U2OS (12 h, replicate number 1); 0.54 in the series with U2OS (12 h, replicate number 2); 0.69 with U2OS (18 h, replicate number 2); -0.15 in the series on U2OS (24 h, replicate number 2).
Turning to `CC(=O)N(CCN(C)C)c1ccc(N/C(=C2\C(=O)Nc3cc(Cl)ccc32)c2ccccc2)cn1`, the “Growth Rate” value is listed as -0.78 in the series with HEK-293T (6 h, replicate number 1); -0.92 with HEK-293T (6 h, replicate number 2); -0.58 with HEK-293T (12 h, replicate number 1); -0.71 in the series with HEK-293T (12 h, replicate number 2); -0.45 with HEK-293T (18 h, replicate number 1); -0.55 in the series on HEK-293T (18 h, replicate number 2). Moreover, the “Growth Rate” value in the series with HEK-293T (24 h, replicate number 1) is reported as -0.37; in the series on HEK-293T (24 h, replicate number 2), -0.42; in the series with Fibroblast (0 h, replicate number 2), -1; with Fibroblast (6 h, replicate number 1), -0.62; in the series with Fibroblast (6 h, replicate number 2), -0.8; in the series with Fibroblast (12 h, replicate number 1), -0.65. Moreover, the “Growth Rate” value in the series with Fibroblast (12 h, replicate number 2) is reported as -0.8; with Fibroblast (18 h, replicate number 1), -0.63; with Fibroblast (18 h, replicate number 2), -0.76; in the series on Fibroblast (24 h, replicate number 1), -0.58; with Fibroblast (24 h, replicate number 2) it was -0.72; in the series with U2OS (6 h, replicate number 1) it was -0.35. In addition, the “Growth Rate” value is on record as 0.34 in the series on U2OS (6 h, replicate number 2); 0.03 in the series with U2OS (12 h, replicate number 1); 0.23 in the series on U2OS (12 h, replicate number 2); 0.02 in the series on U2OS (18 h, replicate number 1); 0.1 with U2OS (18 h, replicate number 2); -0.14 with U2OS (24 h, replicate number 1). Moreover, the “Growth Rate” value in the series with U2OS (24 h, replicate number 2) is on record as -0.13.
Regarding `Cl.Cl.N=C(N)NCCC[C@H](NC(=O)CC1(CC(=O)N2CCN(C3c4ccccc4NC(=O)c4ccccc43)CC2)CCCC1)C(=O)NCCn1c(=O)n(-c2ccccc2)n(-c2ccccc2)c1=O` (some centres undefined), the “Growth Rate” value in the series on HEK-293T (0 h, replicate number 2) was -0.2; with HEK-293T (6 h, replicate number 1) it was 0.47; with Fibroblast (0 h, replicate number 2) it was 0.97; in the series on Fibroblast (6 h, replicate number 1), 0.27; in the series with Fibroblast (12 h, replicate number 1) it was 0.91; in the series on Fibroblast (18 h, replicate number 1), 0.59. The “Growth Rate” value in the series with Fibroblast (24 h, replicate number 1) came to 0.6; in the series on U2OS (0 h, replicate number 1), 0.38; in the series with U2OS (0 h, replicate number 2), 0.1; in the series with U2OS (6 h, replicate number 1), 0.65; in the series on U2OS (6 h, replicate number 2) it was 0.78; in the series on U2OS (12 h, replicate number 1) it was 0.69. The “Growth Rate” value in the series with U2OS (12 h, replicate number 2) turned out to be 0.78; in the series on U2OS (18 h, replicate number 1) it was 0.83; in the series on U2OS (18 h, replicate number 2), 0.87; in the series on U2OS (24 h, replicate number 1), 0.73; in the series with U2OS (24 h, replicate number 2), 0.99.
For `CCn1cnc2c(-c3ccc(F)c(-c4ccc(S(=O)(=O)CC)cc4OC)c3)cnnc21` [DARIGABAT], the “Growth Rate” value is listed as -0.79 in the series on HEK-293T (6 h, replicate number 1); -0.84 with HEK-293T (6 h, replicate number 2); -0.63 in the series with HEK-293T (12 h, replicate number 1); -0.47 in the series on HEK-293T (12 h, replicate number 2); -0.38 with HEK-293T (18 h, replicate number 1); -0.28 in the series with HEK-293T (18 h, replicate number 2). Moreover, the “Growth Rate” value in the series on HEK-293T (24 h, replicate number 1) is on record as -0.32; in the series with HEK-293T (24 h, replicate number 2), -0.18; in the series on Fibroblast (0 h, replicate number 1) it was -0.83; with Fibroblast (6 h, replicate number 2), -1; with Fibroblast (12 h, replicate number 1) it was 1; with Fibroblast (12 h, replicate number 2), -0.93. The “Growth Rate” value is recorded as -0.97 in the series on Fibroblast (18 h, replicate number 1); -0.67 in the series on Fibroblast (18 h, replicate number 2); -0.69 in the series with Fibroblast (24 h, replicate number 1); -0.48 in the series with Fibroblast (24 h, replicate number 2); -0.95 in the series on U2OS (0 h, replicate number 2); -0.92 in the series on U2OS (6 h, replicate number 1). Besides, the “Growth Rate” value in the series with U2OS (6 h, replicate number 2) was -0.7; with U2OS (12 h, replicate number 1), -0.49; in the series with U2OS (12 h, replicate number 2), -0.46; with U2OS (18 h, replicate number 1), -0.16; in the series with U2OS (18 h, replicate number 2) it was -0.24; in the series on U2OS (24 h, replicate number 1) it was 0.01. Further, the “Growth Rate” value in the series on U2OS (24 h, replicate number 2) is -0.05.
For `CC(N)C1CCC(C(=O)Nc2ccncc2)CC1` (centres undefined), the “Growth Rate” value in the series on HEK-293T (0 h, replicate number 1) is -0.35; in the series on HEK-293T (0 h, replicate number 2) it was 0.58; with Fibroblast (0 h, replicate number 1), -0.76; with Fibroblast (18 h, replicate number 1) it was -0.47; in the series with Fibroblast (24 h, replicate number 1), 0.52; in the series with U2OS (0 h, replicate number 1), 0.26. In addition, in the series with U2OS (0 h, replicate number 2), the “Growth Rate” value is -0.73.
For `Cc1cc2ncnn2cc1Nc1ncc2c(n1)n(C1CCOCC1)c(=O)n2C` [AZD-7648], the “Growth Rate” value in the series on HEK-293T (6 h, replicate number 1) was determined as 0.34; in the series on HEK-293T (6 h, replicate number 2) it was 0.98; in the series on HEK-293T (12 h, replicate number 1), 0.78; in the series on HEK-293T (12 h, replicate number 2), 0.76; in the series with HEK-293T (18 h, replicate number 1), 0.87; in the series on HEK-293T (18 h, replicate number 2), 0.95. Also, the “Growth Rate” value was 0.93 with HEK-293T (24 h, replicate number 1); 0.27 in the series with Fibroblast (0 h, replicate number 2); 0.83 in the series on Fibroblast (18 h, replicate number 2); 0.93 in the series on Fibroblast (24 h, replicate number 2); 0.4 with U2OS (0 h, replicate number 1); 0.9 in the series with U2OS (24 h, replicate number 1).
As for `O=C1CSC(=O)N1C(CCc1ccncc1)COc1ccc(-c2cccc([N+](=O)[O-])c2)cc1` (centres undefined), the “Growth Rate” value is given as -0.06 in the series with HEK-293T (6 h, replicate number 1); 0.02 in the series on HEK-293T (6 h, replicate number 2); 0.24 with HEK-293T (12 h, replicate number 1); 0.27 in the series on HEK-293T (12 h, replicate number 2); 0.48 in the series with HEK-293T (18 h, replicate number 1); 0.87 with HEK-293T (24 h, replicate number 1). In addition, the “Growth Rate” value with HEK-293T (24 h, replicate number 2) is listed as 0.65; in the series on Fibroblast (0 h, replicate number 1), 0.71; in the series on Fibroblast (0 h, replicate number 2), -0.87; in the series on Fibroblast (18 h, replicate number 1), 0.92; with Fibroblast (24 h, replicate number 1), 0.45; with U2OS (0 h, replicate number 1), -0.68. Besides, the “Growth Rate” value in the series with U2OS (0 h, replicate number 2) is given as -0.97; with U2OS (6 h, replicate number 1), 0.3; in the series with U2OS (12 h, replicate number 1), 0.76; in the series on U2OS (12 h, replicate number 2) it was 0.94; with U2OS (18 h, replicate number 1), 0.8; in the series on U2OS (18 h, replicate number 2), 0.95. In addition, the “Growth Rate” value amounted to 0.89 in the series on U2OS (24 h, replicate number 1) and 1 in the series with U2OS (24 h, replicate number 2).
With `CN1CCN([C@H]2CC[C@@H](n3cc(-c4ccc(Oc5ccccc5)cc4)c4c(N)ncnc43)CC2)CC1`, the “Growth Rate” value with HEK-293T (6 h, replicate number 1) was -0.98; with HEK-293T (12 h, replicate number 1), -0.89; in the series with HEK-293T (12 h, replicate number 2) it was -0.8; with HEK-293T (18 h, replicate number 1), -0.69; with HEK-293T (18 h, replicate number 2) it was -0.6; with HEK-293T (24 h, replicate number 1) it was -0.55. For the same molecule, the “Growth Rate” value with HEK-293T (24 h, replicate number 2) is given as -0.44; in the series with Fibroblast (6 h, replicate number 1), -1; in the series with Fibroblast (6 h, replicate number 2) it was -0.98; in the series on Fibroblast (12 h, replicate number 2) it was -0.72; in the series with Fibroblast (18 h, replicate number 2), -0.51; in the series on Fibroblast (24 h, replicate number 1), 0.42. For the same molecule, the “Growth Rate” value in the series with Fibroblast (24 h, replicate number 2) is given as -0.46; with U2OS (0 h, replicate number 1), -1; in the series with U2OS (6 h, replicate number 1), -0.82; in the series on U2OS (6 h, replicate number 2) it was -0.23; in the series on U2OS (12 h, replicate number 1), -0.26; with U2OS (12 h, replicate number 2), 0.01. For the same molecule, the “Growth Rate” value is -0.15 in the series on U2OS (18 h, replicate number 1); 0.03 with U2OS (18 h, replicate number 2); -0.17 in the series on U2OS (24 h, replicate number 1); -0.03 with U2OS (24 h, replicate number 2).
